Experimental data from publication PMC2920492 (Journal of medicinal chemistry, 2010).

Columns and labels:
global H3K4me1 [1] = test: Global H3K4me1 levels by quantitative Western blot in Calu-6 cells; type: cell-based, human; details: 10 μM
global H3K4me2 [2] = test: Global H3K4me2 levels by quantitative Western blot in Calu-6 cells; type: cell-based, human; details: 10 μM
SFRP2 = SFRP2 mRNA re-expression by qPCR in Calu-6 cells; type: cell-based, human; details: 10 μM, 24 h
[3] = test system: recombinant LSD1/CoRest complex; details: cited from earlier work
global H3K4me2 [4] = details: P19 cell line; cited from earlier work
GATA4 = GATA4 mRNA re-expression by qPCR in Calu-6 cells; type: cell-based, human; details: 5 and 10 μM, 24 h
recombinant human LSD1 [5] = molecular target: T1, recombinant human LSD1 (Homo sapiens, UniProt O60341); details: 10 μM; cited from earlier work
global H3K4me2 [6] = details: HCT116 cells, 48 hr exposure, increasing concentrations; cited from earlier work
global H3K4me1 [7] = details: HCT116 cells, 48 hr exposure, increasing concentrations; cited from earlier work
global H3K9me2 = details: HCT116 cells, 48 hr exposure, increasing concentrations; cited from earlier work
recombinant human LSD1 [8] = molecular target: T1, recombinant human LSD1; type: biochemical; details: read-out: reduction of LSD1 activity (inhibition), 10 μM
[9] = test system: HCT116 human colon carcinoma; details: compound alone; cited from earlier work

SMILES: Cl.Cl.S=C(NCCCNCCCNCCCNC(=S)NCC(c1ccccc1)c1ccccc1)NCC(c1ccccc1)c1ccccc1 [Compound 27, 1,11-bis-{3-[1-(2,2-diphenylethyl)thioureado]}-4,8-diazaundecane]
- global H3K4me1 level (global H3K4me1 [1]; 24 h): significant increases
- global H3K4me2 level (global H3K4me2 [2]; 24 h): significant increases
- increase in SFRP2 expression (SFRP2): 4.8 fold

SMILES: NNCCc1ccccc1 [phenelzine]
- nucleosomal demethylation [3]: inactivate
- global levels of H3K4me2 (global H3K4me2 [4]): increase

SMILES: Cl.Cl.S=C(NCCCNCCCCNCCCNC(=S)NCC(c1ccccc1)c1ccccc1)NCC(c1ccccc1)c1ccccc1 [Compound 26, 1,12-bis-{3-[1-(2,2-diphenylethyl)thioureado]}-4,9-diazadodecane]
- global H3K4me1 level (global H3K4me1 [1]; 24 h): significant increase
- global H3K4me1 level (global H3K4me1 [1]; 48 h): increase
- global H3K4me2 level (global H3K4me2 [2]; 24 h): decreased
- global H3K4me2 level (global H3K4me2 [2]; 48 h): reduction
- effect on GATA4 levels (GATA4): did not produce significant increases

SMILES: C/N=C(\NC)NCCCNCCCNCCCN/C(=N/C)NC.Cl [Compound 1c]
- %LSD1 activity remaining (recombinant human LSD1 [5]): 14.1 (from [ref. 25]) %
- global H3K4me2 (global H3K4me2 [6]): significant global increases
- global H3K4me1 (global H3K4me1 [7]): significant global increases
- global H3K9me2 levels (global H3K9me2): not affecting

SMILES: Cl.Cl.S=C(NCCCNCCCCCCCNCCCNC(=S)NCC(c1ccccc1)c1ccccc1)NCC(c1ccccc1)c1ccccc1 [Compound 25, 1,15-bis-{3-[1-(2,2-diphenylethyl)thioureado]}-4,12-diazapentadecane]
- global H3K4me1 level (global H3K4me1 [1]; 24 h): significant increases
- global H3K4me1 level (global H3K4me1 [1]; 48 h): most dramatic increases
- global H3K4me2 level (global H3K4me2 [2]; 24 h): significant increases
- global H3K4me2 level (global H3K4me2 [2]; 48 h): most dramatic increases
- effect on GATA4 levels (GATA4): did not produce significant increases

SMILES: Cl.N=C(NCCCNCCCCCCCNCCCNC(=N)NC(=N)NCCC(c1ccccc1)c1ccccc1)NC(=N)NCCC(c1ccccc1)c1ccccc1 [Compound 2d]
- inhibition at 10 µM (recombinant human LSD1 [8]): 82.9%
- global H3K4me2 (global H3K4me2 [6]): significant global increases
- global H3K4me1 (global H3K4me1 [7]): significant global increases
- global H3K9me2 levels (global H3K9me2): not affecting
- effect on tumor cell growth [9]: little effect

SMILES: N[C@@H]1C[C@H]1c1ccccc1 (racemic) [tranylcypromine]
- global levels of H3K4me2 (global H3K4me2 [4]): increase
